## Cc1ccc(-c2cc(C(F)(F)F)nn2-c2ccc(F)cc2F)cc1 [Example 2C, 1-(2,4-Difluorophenyl)-5-(4-methylphenyl)-3-(trifluoromethyl)pyrazole]
  melting point: 83 °C

## Cc1ccc(-c2cc(C(F)(F)F)nn2-c2cc(C)ccc2F)cc1 [Example 2H, 1-(2-Fluoro-5-methylphenyl)-5-(4-methylphenyl)-3-(trifluoromethyl)pyrazole]
  melting point: 45 °C

— patent publication US6403629B2, “Heterocyclic compounds for therapeutic use” (J.B. Chemical and Pharmaceuticals Limited, priority 2000, dated 2002)
